From ChEMBL document CHEMBL3351837 (Bioorg Med Chem Lett, 2014)

What was measured:
[1] = target: 3',5'-cyclic-AMP phosphodiesterase 4B (Homo sapiens, UniProt Q07343); assay: Inhibition of human recombinant PDE4B1 activity assessed as residual cAMP concentration by HTRF assay
[2] = Half life in human lung S9 fraction after 60 mins by […] analysis; format: ADME, tissue-based
[3] = Half life in human plasma after 60 mins by […] analysis; format: ADME, cell-free
[4] = target: 3',5'-cyclic-AMP phosphodiesterase 4D (Homo sapiens, UniProt Q08499)
Sequence of 3',5'-cyclic-AMP phosphodiesterase 4D (Q08499 whole entry): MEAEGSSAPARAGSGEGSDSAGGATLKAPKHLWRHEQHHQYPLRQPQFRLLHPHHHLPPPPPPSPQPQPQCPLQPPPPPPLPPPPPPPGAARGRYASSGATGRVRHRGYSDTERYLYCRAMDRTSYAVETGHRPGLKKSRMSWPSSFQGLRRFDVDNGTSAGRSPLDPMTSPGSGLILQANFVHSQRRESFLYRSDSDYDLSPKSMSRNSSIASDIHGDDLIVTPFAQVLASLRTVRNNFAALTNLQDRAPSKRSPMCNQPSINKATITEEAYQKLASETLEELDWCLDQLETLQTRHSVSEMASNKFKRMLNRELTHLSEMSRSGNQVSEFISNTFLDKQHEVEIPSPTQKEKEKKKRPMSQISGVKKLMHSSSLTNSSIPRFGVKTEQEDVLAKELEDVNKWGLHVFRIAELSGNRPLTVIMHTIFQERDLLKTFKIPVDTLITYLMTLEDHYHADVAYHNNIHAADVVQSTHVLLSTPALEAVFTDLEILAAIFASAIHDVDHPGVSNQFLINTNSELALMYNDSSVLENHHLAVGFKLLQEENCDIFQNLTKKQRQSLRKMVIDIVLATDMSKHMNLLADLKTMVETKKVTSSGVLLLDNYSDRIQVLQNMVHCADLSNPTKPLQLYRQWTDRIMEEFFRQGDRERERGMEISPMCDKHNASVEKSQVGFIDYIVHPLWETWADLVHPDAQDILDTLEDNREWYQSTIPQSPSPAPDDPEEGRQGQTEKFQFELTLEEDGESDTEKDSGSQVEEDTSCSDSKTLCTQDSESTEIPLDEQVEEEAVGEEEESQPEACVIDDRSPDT
Description: Inhibition of human recombinant PDE4D2 activity assessed as residual cAMP concentration by HTRF assay

[5] = Apparent permeability of the compound at pH 7.4 buffer by PAMPA; format: physicochemical
[6] = Half life in human lung homogenate after 60 mins by […] analysis; format: ADME, tissue-based

Sequence of 3',5'-cyclic-AMP phosphodiesterase 4B (Q07343 whole entry): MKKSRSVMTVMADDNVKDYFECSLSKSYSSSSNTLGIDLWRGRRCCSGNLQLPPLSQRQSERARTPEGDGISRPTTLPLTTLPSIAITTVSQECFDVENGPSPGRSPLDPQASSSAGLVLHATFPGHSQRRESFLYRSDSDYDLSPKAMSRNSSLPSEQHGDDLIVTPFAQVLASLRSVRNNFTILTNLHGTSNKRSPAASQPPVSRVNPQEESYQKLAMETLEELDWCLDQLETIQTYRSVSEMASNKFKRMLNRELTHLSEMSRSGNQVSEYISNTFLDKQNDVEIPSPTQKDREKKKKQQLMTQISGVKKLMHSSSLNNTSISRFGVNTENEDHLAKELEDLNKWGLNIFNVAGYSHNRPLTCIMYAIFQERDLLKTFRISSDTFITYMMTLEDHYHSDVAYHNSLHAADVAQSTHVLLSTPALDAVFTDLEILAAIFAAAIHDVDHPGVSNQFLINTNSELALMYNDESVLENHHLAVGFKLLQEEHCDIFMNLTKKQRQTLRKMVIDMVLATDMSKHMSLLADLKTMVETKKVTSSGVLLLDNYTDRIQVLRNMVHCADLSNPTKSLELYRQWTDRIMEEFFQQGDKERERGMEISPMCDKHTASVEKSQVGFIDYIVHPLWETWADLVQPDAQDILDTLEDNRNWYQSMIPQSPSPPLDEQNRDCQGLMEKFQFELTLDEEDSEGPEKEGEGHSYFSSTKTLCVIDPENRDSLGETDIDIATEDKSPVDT

IC50 [1] [µM] | half-life [2] [min] | half-life [3] [min] | IC50 [4] [µM] | Papp [5] [nm/s] | half-life [6] [min] | Compound
0.0047 | > 60 | < 5 | 0.0018 |  |  | O=C(Nc1c(Cl)cncc1Cl)c1ccc(OC(F)F)c(OCCCCSC2CCOC2=O)c1 (configuration not stated)
0.012 |  |  | 0.0073 |  |  | O=C(Nc1c(Cl)cncc1Cl)c1ccc(OC(F)F)c(OCCCN[C@@H]2CCOC2=O)c1
0.91 |  |  | 1.5 | < 0.1 |  | O=C(O)CNCCCOc1cc(C(=O)Nc2c(Cl)cncc2Cl)ccc1OC(F)F
1.7 |  |  | 7.2 |  |  | O=C(Nc1c(Cl)cncc1Cl)c1ccc(OC(F)F)c(OCCCN[C@H](CCO)C(=O)O)c1
0.0055 |  |  | 0.0099 | 1.4 |  | O=C(Nc1c(Cl)cncc1Cl)c1ccc(OC(F)F)c(OCCCSC(CCO)C(=O)O)c1 (configuration not stated)
0.74 |  |  | 2.3 | 0.2 |  | O=C(Nc1c(Cl)cncc1Cl)c1ccc(OC(F)F)c(OCCCNC(CCO)C(=O)O)c1 (configuration not stated)

The remaining lines, values behind:

Compound | IC50 [1] [µM] | half-life [2] [min] | half-life [3] [min] | IC50 [4] [µM] | Papp [5] [nm/s] | half-life [6] [min]
O=C(Nc1c(Cl)c[n+]([O-])cc1Cl)c1ccc(OC(F)F)c(OCCCNC2CCOC2=O)c1 (configuration not stated) | 0.088 |  | 8 | 0.17 |  | 
CC(C)NCC(O)COc1cccc2ccccc12 (configuration not stated) [PROPRANOLOL] |  |  |  |  | 100 | 
COC(=O)CNCCCOc1cc(C(=O)Nc2c(Cl)cncc2Cl)ccc1OC(F)F | 0.021 |  | 19 | 0.032 | 89 | 
O=C(Nc1c(Cl)cncc1Cl)c1ccc(OC(F)F)c(OCCCSC2CCOC2=O)c1 (configuration not stated) | 0.0018 | > 60 | < 5 | 0.0055 |  | 39
O=C(Nc1c(Cl)cncc1Cl)c1ccc(OC(F)F)c(OCCCN[C@@H](CCO)C(=O)O)c1 | 2.7 |  |  | > 10 |  | 
O=C(Nc1c(Cl)cncc1Cl)c1ccc(OC(F)F)c(OCCCNC2CCOC2=O)c1 (configuration not stated) | 0.0054 | > 60 | < 5 | 0.018 |  | > 60
CNC(=C[N+](=O)[O-])NCCSCc1ccc(CN(C)C)o1 [RANITIDINE] |  |  |  |  | 1.4 | 
O=C(Nc1c(Cl)cncc1Cl)c1ccc(OC(F)F)c(OCCCCSC(CCO)C(=O)O)c1 (configuration not stated) | 0.0088 |  |  | 0.0045 | 0.5 | 
O=C(Nc1c(Cl)cncc1Cl)c1ccc(OC(F)F)c(OCCCCNC2CCOC2=O)c1 (configuration not stated) | 0.004 | > 60 | < 5 | 0.0066 | 47 | > 60
O=C(Nc1c(Cl)cncc1Cl)c1ccc(OC(F)F)c(OCCCN[C@H]2CCOC2=O)c1 | 0.011 |  |  | 0.048 |  | 
O=C(Nc1c(Cl)cncc1Cl)c1ccc(OC(F)F)c(OCCCCNC(CCO)C(=O)O)c1 (configuration not stated) | 0.18 |  |  | 0.15 | 0.3 | 
